Measured values: patent publication US20020137929A1, “1 - (3-heterocyclylphenyl) isothiourea, -isourea, -guanidine and -amidine herbicidal agents” (Intellectual Property Department, BASF Aktiengesellschaft, priority 1998, published 2002)

Assays:
[1] = system: CASOB (Sicklepod); assay: Postemergence herbicidal evaluation; format: in vivo, Cassia obtusifolia; conditions: postemergence
In short: (§1)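 Young plants, roughly two weeks from seeding, receive the active ingredient as a sprayed dispersion (acetone/water 50/50, 0.5% TWEEN 20) at 40 psi. Doses span about 0.0156 to 0.500 kg/ha. A visual score from 0 to 9 compares treated with control plants four to five weeks on.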

[2] = system: AMBEL (Ragweed, Common); assay: Preemergence herbicidal evaluation; format: in vivo, Ambrosia artemisifolia; conditions: rated 4-5 weeks after treatment
In short: (§2)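 Scores (0–9) reflect visual comparison with control plants for stand, vigor, malformation, size and chlorosis. Compound was applied to the soil after sowing, before emergence, as an aqueous acetone spray (about 0.0156–0.500 kg/ha), and cups were kept in a greenhouse for 4–5 weeks.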

[3] = system: GLXMAW (Soybean, Williams); assay: Preemergence herbicidal evaluation; format: in vivo, Glycine max, (L.) Merr. cv Williams; conditions: rated 4-5 weeks after treatment
In short: as §2

[4] = system: SETVI (Foxtail, Green); assay: Preemergence herbicidal evaluation; format: in vivo, Setaria viridis; conditions: rated 4-5 weeks after treatment
In short: as §2

[5] = system: MOOVA (Monochoria); assay: Preemergence weed control under flooded paddy conditions; format: in vivo, Monochoria vaginalis; conditions: rated 3-4 weeks after treatment
In short: (§3)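 Ratings on a 0-9 visual scale cover stand, vigor, malformation, size, chlorosis and overall appearance relative to a control, taken three to four weeks post-treatment. Application was into flood water over freshly sown silt loam at roughly 0.0313 to 0.500 kg/ha.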

[6] = system: CYPSE (Flatsedge); assay: Postemergence weed control under flooded paddy conditions; format: in vivo, Cyperus serotinus; conditions: postemergence weeds, rated 3 to 4 weeks after treatment
In short: (§4)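 With weeds 3 to 5 cm tall and rice at the 1.5 to 2.5 leaf stage, containers were flooded and water held 1.5 to 3 cm above soil. Compounds in 50/50 v/v aqueous/acetone went into the flood water at about 0.0313 to 0.500 kg/ha a.i. Effects were visually rated 0–9 against controls after three to four weeks in the greenhouse.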

[7] = system: SAGPY (Arrowhead (Pygmaea)); assay: as above; format: in vivo, Sagittaria pygmaea; conditions: postemergence weeds, rated 3 to 4 weeks after treatment
In short: as §4

[8] = system: GALAP (Galium); assay: Postemergence herbicidal evaluation; format: in vivo, Galium aparine; conditions: postemergence
In short: as §1

[9] = system: ORYSAT (Rice, Tebonnet); assay: Preemergence herbicidal evaluation; format: in vivo, Oryza sativa, (L.) Tebonnet; conditions: rated 4-5 weeks after treatment
In short: as §2

[10] = system: ORYSAT (Rice, Tebonnet); assay: Postemergence herbicidal evaluation; format: in vivo, Oryza sativa, (L.) Tebonnet; conditions: postemergence
In short: as §1

[11] = system: CYPIR (Rice Flatsedge); assay: Postemergence weed control under flooded paddy conditions; format: in vivo, Cyperus iria; conditions: postemergence weeds, rated 3 to 4 weeks after treatment
In short: as §4

[12] = system: ZEAMX (Corn, Field); assay: Postemergence herbicidal evaluation; format: in vivo, Zea mays; conditions: postemergence
In short: as §1

[13] = system: CYPSE (Flatsedge); assay: Preemergence weed control under flooded paddy conditions; format: in vivo, Cyperus serotinus; conditions: rated 3-4 weeks after treatment
In short: as §3

[14] = system: CHEAL (Lambsquarters, Common); assay: Postemergence herbicidal evaluation; format: in vivo, Chenopodium album; conditions: postemergence
In short: as §1

For CCOC(=O)CN1C(=O)C(CC(=O)Nc2ccccc2)SC1=Nc1cc(-n2c(=O)cc(C(F)(F)F)n(C)c2=O)c(F)cc1Cl (stereo not shown) [Compound 68, Ethyl 2-{{2-chloro-5-[3,6-dihydro-3-methyl-2,6-dioxo-4-(trifluoromethyl)-1(2H)-pyrimidinyl]-4-fluorophenyl}imino}-4-oxo-5-[(phenylcarbamoyl)-methyl]-3-thiazolidineacetate], the CASOB herbicidal rating ([1]; rate 0.0158 kg/ha) was 1.0, the CASOB herbicidal rating ([1]; rate 0.0315 kg/ha) was 4.0 and the CASOB herbicidal rating ([1]; rate 0.0630 kg/ha) was 7.0. For the same compound, the “Preemergence herbicidal rating AMBEL” value ([2]; rate 0.0156 kg/ha) was 0.0, the “Preemergence herbicidal rating AMBEL” value ([2]; rate 0.0313 kg/ha) was 0.0 and the “Preemergence herbicidal rating AMBEL” value ([2]; rate 0.0625 kg/ha) was 0.0. For the same compound, the “Preemergence herbicidal rating AMBEL” value ([2]; rate 0.1250 kg/ha) was 1.0, the “Preemergence herbicidal rating AMBEL” value ([2]; rate 0.2500 kg/ha) was 7.0 and the “Preemergence herbicidal rating GLXMAW” value ([3]; rate 0.0156 kg/ha) was 0.0. For the same compound, the “Preemergence herbicidal rating GLXMAW” value ([3]; rate 0.0313 kg/ha) was 0.0, the “Preemergence herbicidal rating GLXMAW” value ([3]; rate 0.0625 kg/ha) was 0.0 and the “Preemergence herbicidal rating GLXMAW” value ([3]; rate 0.1250 kg/ha) was 1.0. For the same compound, the “Preemergence herbicidal rating GLXMAW” value ([3]; rate 0.2500 kg/ha) was 1.0, the “Preemergence herbicidal rating SETVI” value ([4]; rate 0.0156 kg/ha) was 0.0 and the “Preemergence herbicidal rating SETVI” value ([4]; rate 0.0313 kg/ha) was 0.0. The “Preemergence herbicidal rating SETVI” value ([4]; rate 0.0625 kg/ha) was 0.0, the “Preemergence herbicidal rating SETVI” value ([4]; rate 0.1250 kg/ha) was 0.0 and the “Preemergence herbicidal rating SETVI” value ([4]; rate 0.2500 kg/ha) was 2.0. For the same compound, the “MOOVA herbicidal effect rating” value ([5]; 0.0313 kg/ha) was 3.0, the “MOOVA herbicidal effect rating” value ([5]; 0.0625 kg/ha) was 9.0 and the “MOOVA herbicidal effect rating” value ([5]; 0.1250 kg/ha) was 9.0. The “MOOVA herbicidal effect rating” value ([5]; 0.2500 kg/ha) was 9.0, the “Herbicidal rating CYPSE” value ([6]; Rate 0.0313 kg/ha) was 0.0 and the “Herbicidal rating CYPSE” value ([6]; Rate 0.0625 kg/ha) was 0.0. The “Herbicidal rating CYPSE” value ([6]; Rate 0.1250 kg/ha) was 0.0, the “Herbicidal rating CYPSE” value ([6]; Rate 0.2500 kg/ha) was 0.0 and the “Herbicidal rating SAGPY” value ([7]; Rate 0.0313 kg/ha) was 0.0. The “Herbicidal rating SAGPY” value ([7]; Rate 0.0625 kg/ha) was 0.0, the “Herbicidal rating SAGPY” value ([7]; Rate 0.1250 kg/ha) was 0.0 and the “Herbicidal rating SAGPY” value ([7]; Rate 0.2500 kg/ha) was 3.0. It also gave a GALAP herbicidal rating ([8]; rate 0.0158 kg/ha) of 2.0, a GALAP herbicidal rating ([8]; rate 0.0315 kg/ha) of 3.0 and a GALAP herbicidal rating ([8]; rate 0.0630 kg/ha) of 4.0. For the same compound, the “Preemergence herbicidal rating ORYSAT” value ([9]; rate 0.0156 kg/ha) was 0.0, the “Preemergence herbicidal rating ORYSAT” value ([9]; rate 0.0313 kg/ha) was 0.0 and the “Preemergence herbicidal rating ORYSAT” value ([9]; rate 0.0625 kg/ha) was 0.0. For the same compound, the “Preemergence herbicidal rating ORYSAT” value ([9]; rate 0.1250 kg/ha) was 0.0, the “Preemergence herbicidal rating ORYSAT” value ([9]; rate 0.2500 kg/ha) was 1.0 and the ORYSAT herbicidal rating ([10]; rate 0.0158 kg/ha) was 3.0. The ORYSAT herbicidal rating ([10]; rate 0.0315 kg/ha) was 3.5, the ORYSAT herbicidal rating ([10]; rate 0.0630 kg/ha) was 4.0 and the “Herbicidal rating CYPIR” value ([11]; Rate 0.0313 kg/ha) was 0.0. The “Herbicidal rating CYPIR” value ([11]; Rate 0.0625 kg/ha) was 0.0, the “Herbicidal rating CYPIR” value ([11]; Rate 0.1250 kg/ha) was 5.0 and the “Herbicidal rating CYPIR” value ([11]; Rate 0.2500 kg/ha) was 8.0. For the same compound, the ZEAMX herbicidal rating ([12]; rate 0.0158 kg/ha) was 5.0, the ZEAMX herbicidal rating ([12]; rate 0.0315 kg/ha) was 5.0 and the ZEAMX herbicidal rating ([12]; rate 0.0630 kg/ha) was 5.5. For the same compound, the “CYPSE herbicidal effect rating” value ([13]; 0.0313 kg/ha) was 0.0, the “CYPSE herbicidal effect rating” value ([13]; 0.0625 kg/ha) was 0.0 and the “CYPSE herbicidal effect rating” value ([13]; 0.1250 kg/ha) was 0.0. For the same compound, the “CYPSE herbicidal effect rating” value ([13]; 0.2500 kg/ha) was 0.0, the CHEAL herbicidal rating ([14]; rate 0.0158 kg/ha) was 4.0 and the CHEAL herbicidal rating ([14]; rate 0.0315 kg/ha) was 7.0. The CHEAL herbicidal rating ([14]; rate 0.0630 kg/ha) was 7.0.
